Assay results from patent publication US20030050236A1, “Compounds that enhance tumor death” (The University of Chicago, priority 2000, published 2003).
Where a name gives a salt, the structure may show the parent alone. Read-outs that look alike come from different tables or passages of the source. One block for each molecule: values may come before it. *1 amine or outer side, *2 acyl side, *3 side chain or, on linkers, in order; H or OH if unused. Where a SMILES comes first, the peptide text is derived from it. Bridges are numbered along the chain shown (N, C = ends). Roman numbers before positions name the chains, in order. Where no end group is shown, it is not given here. [ ]: non-standard residue; d: D form. Actinocin(9to1) = Cc1c2oc3c(C)ccc(C(=O)[*:1])c3nc-2c(C(=O)[*:2])c(N)c1=O; NMeV = CN[C@H](C(=O)O)C(C)C; Dap = NC[C@H](N)C(=O)O; Sar = CNCC(=O)O

Key:
[1] = system: H-Ras- and N-Ras-encoded p21s; conditions: cited from earlier work
[2] = cited from earlier work; for fraction of dose excreted / recovered in the urine: unchanged, intact or active drug
[3] = biological target: T1, PPT1 (Homo sapiens, UniProt P50897); conditions: cited from earlier work
T1 sequence (P50897 28-306): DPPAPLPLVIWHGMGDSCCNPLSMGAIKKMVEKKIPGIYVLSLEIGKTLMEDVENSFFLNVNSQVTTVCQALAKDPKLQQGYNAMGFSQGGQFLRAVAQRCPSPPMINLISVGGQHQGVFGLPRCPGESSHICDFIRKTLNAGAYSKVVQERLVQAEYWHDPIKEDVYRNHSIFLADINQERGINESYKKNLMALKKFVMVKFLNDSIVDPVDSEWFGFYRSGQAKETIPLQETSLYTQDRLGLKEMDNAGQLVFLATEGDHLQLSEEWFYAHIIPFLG

[4] = cited from earlier work
[5] = system: LA-N-5 human neuroblastoma cells; assay: Cell viability / cell death by MTT assay; assay type: cell-based; conditions: LY-294002 30 μM, C2 ceramide 25 μM; 24 hrs
Description: LA-N-5 human neuroblastoma cells were grown in DMEM supplemented with 10% fetal bovine serum and 1% gentamicin. […] Cell death was measured by the MTT method (Cho et al., 2000a; Cho et al., 2000b; Cho et al., 2000c).

[6] = multiple myeloma, oral administration; cited from earlier work
[7] = biological target: T1, PPT1; assay: In vitro PPT1 activity assay, [14C]palmitoyl peptide substrates, cell extract
Description: Incubations were performed for 20 min at 37° C. and reactions terminated by addition of 1 ml of chloroform/methanol/2N HCl (2:1:0.06, v/v). After the centrifugation, organic phase was analyzed by HPTLC using n-butanol/pyridine/acetic acid/water (45:30:9:36, v/v) and [14C] palmitate release was quantified.
The peptide sequence, AcGCVKIKK (a palmitoylation site in K-Ras), was modified by substituting the SH group of cysteine with NH2 to generate diamino propionic acid, which was then acylated with palmitate (AcG-palmitoyl diamino propionate-VKIKK). […] In another set of experiments, the unmodified peptide itself (AcGCVKIKK) was used as a control to exclude the possibility of a nonspecific effect of the sequence on PPT activity.
In brief, the cell sonicate was incubated in the assay mixture containing 50 mM sodium citrate (pH 4.0) and IRY([^4C]palmitoylated)CWLRR octapeptide (2,000-4,000 cpm) for 20 min at 37° C. For the pH profile of PPT1 activity, 50 mM sodium citrate (pH 5 or 6) or 50 mM Tris-HCl (pH 7.4) was used with other conditions remaining the same. After addition of 1 ml of chloroform/methanol/2N HCl (2:1:0.06, by volume) and centrifugation, the organic phase was dried, reconstituted sample analyzed by HPTLC using n-butanol/pyridine/acetic acid/water (45:30:9:36, by volume) and the radioactive spot corresponding to [^14C] palmitate was counted.
PPT1 activity was measured as described above. In brief, the cell sonicate was incubated in the assay mixture (50 mM sodium citrate (pH 4.0) for [^14C]palmitoylated [sequence] Po peptide substrate (3,000-4,000 cpm) or 50 mM Tris (pH 7.4) for [^14C]palmitoylated MLCCMRR GAP43 peptide substrate) for 20 min at 37° C. After organic extraction, samples were analyzed by HPTLC using n-butanol/pyridine/acetic acid/water (45:30:9:36, by volume) and the radioactive spot corresponding to [^14C] palmitate was counted.

[8] = system: PPT1 overexpressing LA-N-5 cells; assay: Cell death by MTT assay in PPT1 overexpressing cells; assay type: cell-based, human; conditions: compared to LAN-5 cells
Description: Cells were plated in 24-well culture plates containing 500 μl media. After drug treatment, 50 μl MTT (5 mg/ml in PBS) was added and incubated for 20 min at 37° C. An aliquot of 500 μl of 10% sodium dodecyl sulfate in 0.01 N HCl was added. After incubating overnight, the absorbance at 570 nm was determined by spectrophotometry. Cell viability was calculated as percent cell survival by dividing absorbance [treatment-blank] by absorbance [control-blank], where treatment is the reading for the treated cells, control is for vehicle-treated cells and blank is for MTT added to the media without cells.
In order to further verify that the increased susceptibility to drug-induced apoptosis of the AS-PPT1 treated cells was due to compromised PPT1 activity, the extent of cell death induced by C2-ceramide treatment in control was compared to DAP 1-treated cells. Treatment of cells with DAP1 alone induced 5-10% death of cells at DAP1 concentrations up to 100 μM for 6 h., as measured by MTT assay (FIG. 10A). […] In these cells, neither C2-ceramide, DAP1 alone or DAP1 (100 μM) followed by C2-ceramide (30 μM) for 6 h induced more than 10% cell death (FIG. 10B).
LA-N-5 human neuroblastoma cells were grown in DMEM supplemented with 10% fetal bovine serum and 1% gentamicin. Clones of cells stably expressing PPT1 were selected and maintained by growing in media containing G418 (500 μg/ml) as described (Cho, et al., 2000b). Cell death was measured by the MTT method (Cho et al., 2000a; Cho et al., 2000b; Cho et al., 2000c).

[9] = system: HOG cells, human oligodendroglioma cells; assay: Killing of HOG cells, MTT assay; assay type: cell-based; conditions: 24 hours
Description: The relative potency of DAP1 compared to DAP1 ketoamide (DAP-KA) in killing cells was evaluated. HOG cells, human oligodendroglioma cells, were exposed for 24 hours to a) DAP1 or DAP-KA (FIG. 15A) or […] etoposide and either DAP 1 or DAP-KA (FIG. 15B). The concentration of etoposide was chosen to give 50% killing as measured by MTT assay.

[10] = biological target: T2, palmitoyl protein thioesterase 1 (PPT1) (human, UniProt P50897 28-306); assay: cell-based or functional assay
T2 sequence: T1 sequence (P50897 28-306)

Molecule: C/C=C/C/C=C/CCC(=O)[C@H]1O[C@H]1C(N)=O (relative stereo) [cerulenin, [2R, 3S]-2,3-epoxy-4-oxo-7,10-trans, trans-dodecadienamide]
palmitoylation of Ras p21s [1]: able to inhibit the palmitoylation

Molecule: Cc1c2oc3c(C)ccc(C(=O)N[C@@H]4C(=O)N[C@H](C(C)C)C(=O)N5CCC[C@H]5C(=O)N(C)CC(=O)N(C)[C@@H](C(C)C)C(=O)O[C@@H]4C)c3nc-2c(C(=O)N[C@@H]2C(=O)N[C@H](C(C)C)C(=O)N3CCC[C@H]3C(=O)N(C)CC(=O)N(C)[C@@H](C(C)C)C(=O)O[C@@H]2C)c(N)c1=O [Actinomycin D] (I: T[dV]P[Sar][NMeV] / II: T[dV]P[Sar][NMeV]; ester I:1-I:C, II:1-II:C; linker I:N-II:N via Actinocin(9to1))
fraction of dose excreted / recovered in the urine [2]: 10%

Molecule: CC[C@H](C)[C@H]1NC(=O)[C@@H](NC(=O)[C@@H](CC(C)C)N(C)C(=O)[C@@H]2CCCN2C(=O)C(C)O)[C@@H](C)OC(=O)[C@H](Cc2ccc(OC)cc2)N(C)C(=O)[C@@H]2CCCN2C(=O)[C@H](CC(C)C)NC(=O)[C@@H](C)C(=O)[C@H](C(C)C)OC(=O)C[C@@H]1O (stereo partly shown) [Didemnin]
mode of PPT1 inhibition [3]: non-competitively inhibit PPT1 activity

Molecule: COc1cccc2c1C(=O)c1c(O)c3c(c(O)c1C2=O)C[C@@](O)(C(=O)CO)C[C@@H]3O[C@H]1C[C@H](N)[C@H](O)[C@H](C)O1 [Doxorubicin, 5,12-Naphthacenedione, (8 s-cis)-10-[(3-amino-2,3,6-trideoxy-a-L-lyxo-hexopyranosyl)oxy]-7,8,9,1 0-tetrahydro-6,8,11-trihydroxy-8-(hydroxyacetyl)-1-methoxy-hydrochloride]
probability of developing impaired myocardial function ([4]; 400 mg/m^2): 3 to 5%
probability of developing impaired myocardial function ([4]; 450 mg/m^2): 5 to 8%
probability of developing impaired myocardial function ([4]; 500 mg/m^2): 6 to 20%
probability of developing impaired myocardial function ([4]; total cumulative dose of 300 mg/m^2): 1 to 2%

Molecule: O=c1cc(N2CCOCC2)oc2c(-c3ccccc3)cccc12 [LY-294002]
cell death (MTT assay) [5]: about 50%

Molecule: O=NN(CCCl)C(=O)NC1CCCCC1 [Lomustine, 1-(2-chloro-ethyl)-3-cyclohexyl-1 nitrosourea]
radioactivity excreted as degradation products within 24 hours ([2]; oral, 30 mg/m^2 to 100 mg/m^2): about half

Molecule: N[C@@H](Cc1ccc(N(CCCl)CCCl)cc1)C(=O)O [Melphalan, 4-[bis(2-chloroethyl)amino]-L-phenylalanine]
patients showing a favorable response [6]: one third to one half

Molecule: CO[C@@]12[C@H](COC(N)=O)C3=C(C(=O)C(C)=C(N)C3=O)N1C[C@@H]1N[C@@H]12 [Mitomycin]
fraction of dose excreted / recovered in the urine [2]: Approximately 10%

Molecule: O=S(=O)(F)Cc1ccccc1 [PMSF, phenylmethylsulfonyl fluoride]
effect on PPT1 enzyme activity ([7]; preincubation with 1 mM, control or PPT1 transfected cells): did not affect the enzyme activity

Molecule: CC[C@]1(O)C[C@@H]2CN(CCc3c([nH]c4ccccc34)[C@@](C(=O)OC)(c3cc4c(cc3OC)N(C)[C@H]3[C@@](O)(C(=O)OC)[C@H](OC(C)=O)[C@]5(CC)C=CCN6CC[C@]43[C@@H]65)C2)C1 [Vinblastine]
fraction of dose excreted / recovered in the urine [2]: Approximately 15%

Molecule: COc1cccc2c1C(=O)c1c(O)c3c(c(O)c1C2=O)C[C@@](O)(C(C)=O)C[C@@H]3O[C@H]1C[C@H](N)[C@H](O)[C@H](C)O1 [daunorubicin, 5,12-Naphthacenedione, (8S-cis)-8-acetyl-10-[(3-amino-2,3 ,6-trideoxy-a-L-lyxo-hexanopyranosyl)oxy]-7,8 ,9,1 0-tetrahydro-6,8, 11-trihydroxy-10-methoxy-, hydrochloride]
susceptibility of PPT1 overexpressing cells to killing [8]: markedly decreased susceptibility to killing

Molecule: COc1cc([C@@H]2c3cc4c(cc3[C@@H](O[C@@H]3O[C@@H]5CO[C@@H](C)O[C@H]5[C@H](O)[C@H]3O)[C@H]3COC(=O)[C@H]23)OCO4)cc(OC)c1O [etoposide]
susceptibility of PPT1 overexpressing cells to killing [8]: markedly decreased susceptibility to killing
killing (MTT assay) ([9]; 10 mM etoposide): 50%

Molecule: CN[C@@H]1C[C@H]2O[C@@](C)([C@@H]1OC)n1c3ccccc3c3c4c(c5c6ccccc6n2c5c31)C(=O)NC4 [staurosporine]
susceptibility of PPT1 overexpressing cells to killing [8]: markedly decreased susceptibility to killing

Molecule: AcG-Dap((+/−)α-hydroxyhexadecanoyl)-VKIKK.amide (Ac-G[Dap]VKIKK-NH2; not fully specified (residue 2); printed as AcG-Dap((+/−)α-hydroxyhexadecanoyl)-VKIKK.amide) [DAP-KA]
potency as inducer of cell death relative to DAP1 ([9]; with etoposide): more potent inducer of cell death than DAP1
potency as inhibitor relative to DAP1 [7]: more potent inhibitor than DAP1

inhibition in an in vitro assay (PPT activity) (% inhibition at 20 µM) [10]: 85
Molecule: AcG-palmitoyl diamino propionate-VKIKK (DAP1) (peptide)

effect on PPT1 activity ([7]; cell extract preincubated 15 min at 37° C., Po, rhodopsin, GAP-43, Gα peptide substrates): did not affect PPT activity
Molecule: AcGCVKIKK (Ac-GCVKIKK-NH2)

depalmitoylation by extract of PPT1-overexpressing cells against vector-transfected cells [10]: ~2.5 fold
B1: [14C]palmitoylated GAP43 peptide (MLCCMRR) (peptide)
peptide: MLCCMRR
modifications: also: [14C]palmitoyl thioester on one Cys, which not given here
